# Measurements: ChEMBL document CHEMBL1149007, “The Ichthyotoxic Principles of Zanthoxylum clava-herculis” (J Nat Prod, 1986)
# System: Pimephales promelas
# Assay: Ichthyotoxicity in Pimephales promelas assessed as mortality measured every 30 mins for 2 hrs
# Assay type: organism-based
structure (smiles),measurement,value
CC(=O)N1CCc2cc3c(c4c2[C@H]1Cc1ccccc1-4)OCO3,IC50,300 µM
